{"source": "patent US20090005338A1", "about": "“Carbonyl-substituted titanocenes” (Charite - Universitatsmedizin Berlin, priority 2006, published 2009)", "key": {"[1]": {"test_system": "BJAB cells (Burkitt lymphoma cell line)", "test": "Apoptosis induction detected as DNA fragmentation by flow cytometry (FACS) after propidium iodide staining", "type": "cell-based", "details": "72 h", "protocol": "Within the scope of apoptotic cell death, the cell is dismantled proteolytically by caspases from inside. Thereupon, the DNA is also fragmented, inter alia. This DNA fragmentation, which is specific for apoptosis, is considered a proof of apoptosis induction and is detected by means of flow cytometry on the single cell level.\nBJAB cells (Burkitt lymphoma cell line) in different concentrations were treated with a titanocene derivative and incubated at 37° C. and 5% CO2 for 72 hours. A control (untreated cell suspension) and a solvent control with dimethyl sulfoxide (DMSO) were continuously included. After incubation for 72 hours, apoptosis induction was detected by flow cytometry (FACS) through DNA fragmentation with propidium iodide (Eβmann, 2000).\nFIG. 1: BLAB mock cells (1×10^5/ml) were treated with increasing concentrations of the titanocene derivative 4-[1-(dichlorotitanocenyl)]-4-methylbutyric acid n-octylamide (2) and incubated at 37° C. and 5% CO2 for 72 h. After propidium iodide staining, the DNA fragments were detected by flow cytometry (FACS analysis). Ko (untreated cell suspension) and DMSO (solvent control) were included with equivalent treatment.\nSince the activity of the cytostatic agents develops in the malignant cells through a specific apoptosis induction, it is reasonable to measure this effect and thus the selectivity of our compounds rather than stating, as usual, the non-specific cytotoxicity described by the LC50 values. Therefore, for examining the structure-effect relationship of our titanocenes, we have established the concentration (AC50) at which a specific apoptosis is induced in […] of the lymphoma cells.\nFor determining this value, lymphoma cells (10^5/ml BJAB cells) were incubated in different concentrations with (21) at 5% CO2 and 37° C. for 72 h. After staining with propidium iodide, the DNA fragmentation was detected by flow cytometry by means of a FACS analysis."}, "[2]": {"test_system": "primary lymphoblasts from an ALL patient", "test": "Apoptosis induction in primary lymphoblasts ex vivo (DNA fragmentation, propidium iodide, FACS)", "type": "cell-based, human", "details": "60 h, concentration in the range of LD50 in the BLAB cell line; for apoptosis induction in primary lymphoblasts (in words): therapy-resistant leukemia cells", "protocol": "The concentrations employed were selected to always be within the respective range of LD50 when the BLAB cell line was used. Thereafter, the cells were incubated at 37° C. and 5% CO2 for 60 hours, followed by staining with propidium iodide and quantifying by flow cytometry in FACS (Prokop et al., 2003).\nThe incubation was effected at 37° C. and 5% CO2 for 60 h. Apoptosis induction was measured as DNA fragmentation by flow cytometry after propidium iodide staining."}, "[3]": {"test_system": "human lymphoma cells", "details": "SCID mice, microcrystalline suspension p.o., 5×50 mg/kg body weight per week over 2 weeks from day 14; Mann-Whitney U test p<0.05", "protocol": "The mean values of the tumor volumes (*=significance) with standard deviations as a function of therapy duration (application of (2) from day 14 with 5×50 mg/kg body weight per week p.o. over 2 weeks) are shown."}, "[4]": {"test_system": "BJAB cells", "details": "48 h, concentration-dependent", "method": "After treatment of the cells with different concentrations of a titanocene including a zero control and a solvent control (DMSO), the cells are incubated at 37° C. and 5% CO2 for 48 hours.\nThe incubation was effected at 37° C. and 5% CO2 for 48 h including zero and solvent controls, followed by staining the cells with the mitochondria-specific stain JC-1 and detection of the color change and thus the change of the mitochondrial membrane potential by flow cytometry."}, "[5]": {"details": "SCID mice, oral therapy 50 mg/kg body weight"}, "[6]": {"test_system": "BLAB cells", "details": "3 h incubation, highest concentration", "method": "A non-specific cytotoxic effect of the titanocenes via necrosis could be excluded by measuring the extracellular lactate dehydrogenase (LDH) release by ELISA reader detection after incubation for 3 h."}, "[7]": {"test_system": "BJAB cells", "details": "75 μM, 72 h"}, "[8]": {"test_system": "lymphoma cells (BLAB)", "details": "various concentrations, 72 h", "method": "Lymphoma cells (BLAB) were treated with the carbonyl-substituted titanocene (2), the conventional nucleoside analogue cytarabin (AraC), which is used in the therapy of malignant diseases, and with the combination of (2) and AraC in various concentrations for 72 h. The apoptosis induction was examined by flow cytometry by measuring the DNA fragmentation after staining the cells with propidium iodide. The measured values of three independent examinations are shown, wherein the error bars show the standard deviations from the mean."}}, "data": [{"molecule": "4-[1-(dichlorotitanocenyl)]-4-methylbutyric acid n-octylamide [Complex (2)]", "values": [{"measurement": "apoptosis induced, proportion of BJAB cells", "setting": "[1]; 100 μM", "result": "about 840%"}, {"measurement": "AC50", "setting": "[1]; BJAB cell line, 37° C., 5% CO2, read-out: AC50 (concentration at which a specific apoptosis is induced in 500% of the lymphoma cells)", "result": 55, "unit": "µM"}, {"measurement": "concentration-dependent apoptosis induction (proportion of apoptotic cells in the total population)", "setting": "[1]; BJAB, highest effect over the concentrations tested", "result": "up to 80%"}, {"measurement": "apoptosis induction, proportion of leukemia cells ex vivo", "setting": "[2]", "result": "about 60%"}, {"measurement": "growth of human lymphoma cells (tumor volume)", "setting": "[3]", "result": "significantly inhibited"}, {"measurement": "proportion of cells with changed mitochondrial membrane potential (ΔΨm)", "setting": "[4]", "result": "more than 70%"}, {"measurement": "tolerability", "setting": "[5]", "result": "good tolerability"}, {"measurement": "viability of the cell population (LDH release)", "setting": "[6]", "result": "above 94%"}, {"measurement": "cell morphology", "setting": "[7]", "result": "significant swelling and “blebbing” that is characteristic of apoptosis"}, {"measurement": "effect of the combination with AraC on apoptosis induction", "setting": "[8]", "result": "significant synergistic effect"}]}, {"molecule": "Nc1ccn([C@@H]2O[C@H](CO)[C@@H](O)[C@@H]2O)c(=O)n1", "note": "[cytarabin]", "values": [{"measurement": "apoptosis induction in primary lymphoblasts (in words)", "setting": "[2]", "result": "did not induce any significant apoptosis"}]}, {"molecule": "COc1cccc2c1C(=O)c1c(O)c3c(c(O)c1C2=O)C[C@@](O)(C(C)=O)C[C@@H]3O[C@H]1C[C@H](N)[C@H](O)[C@H](C)O1", "note": "[daunorubicin]", "values": [{"measurement": "apoptosis induction in primary lymphoblasts (in words)", "setting": "[2]", "result": "did not induce any significant apoptosis"}]}, {"molecule": "COc1cccc2c1C(=O)c1c(O)c3c(c(O)c1C2=O)C[C@@](O)(C(=O)CO)C[C@@H]3O[C@H]1C[C@H](N)[C@H](O)[C@H](C)O1", "note": "[doxorubicin]", "values": [{"measurement": "apoptosis induction in primary lymphoblasts (in words)", "setting": "[2]", "result": "did not induce any significant apoptosis"}]}, {"molecule": "COc1cccc2c1C(=O)c1c(O)c3c(c(O)c1C2=O)C[C@@](O)(C(=O)CO)C[C@@H]3O[C@H]1C[C@H](N)[C@@H](O)[C@H](C)O1", "note": "[epirubicin]", "values": [{"measurement": "apoptosis induction in primary lymphoblasts (in words)", "setting": "[2]", "result": "did not induce any significant apoptosis"}]}, {"molecule": "CC(=O)[C@]1(O)Cc2c(O)c3c(c(O)c2[C@@H](O[C@H]2C[C@H](N)[C@H](O)[C@H](C)O2)C1)C(=O)c1ccccc1C3=O", "note": "[idarubicin]", "values": [{"measurement": "apoptosis induction in primary lymphoblasts (in words)", "setting": "[2]", "result": "did not induce any significant apoptosis"}]}, {"molecule": "CC[C@]1(O)C[C@H]2CN(CCc3c([nH]c4ccccc34)[C@@](C(=O)OC)(c3cc4c(cc3OC)N(C=O)[C@H]3[C@@](O)(C(=O)OC)[C@H](OC(C)=O)[C@]5(CC)C=CCN6CC[C@]43[C@@H]65)C2)C1", "note": "[vincristin]", "values": [{"measurement": "apoptosis induction in primary lymphoblasts (in words)", "setting": "[2]", "result": "did not induce any significant apoptosis"}]}]}
